Laboratory results published in PMC10893631, “Receptor-based pharmacophore modeling, molecular docking, synthesis and biological evaluation of novel VEGFR-2, FGFR-1, and BRAF multi-kinase inhibitors” (BMC Chemistry, 2024).
Like-named read-outs stand apart in the source and are kept apart here.

How the values were obtained:
VEGFR-2 = biological target: T1, VEGFR-2 (Homo sapiens, UniProt P35968); experiment: VEGFR-2 kinase assay kit (BPS), Kinase-Glo Max luminescence; assay type: biochemical; settings: VEGFR-2, single dose 10 µM, duplicate, mean ± SD
T1 construct: purchased BPS Biosciences 40325
Protocol: 2. Biochemical kinase assay procedure
The inhibitory activity against different kinases was determined using kinase kits […]
from BPS Biosciences and kinase-Glo Max luminescence kinase assay kit (Promega).
The assay was carried out according to the protocol provided by the manufacturer. A stock solution of the synthesized derivatives in 100% DMSO was prepared. Subsequently, the compounds were diluted to 10% DMSO.
A master mixture was prepared according to the number of wells. For VEGFR-2 and FGFR-1 biochemical assays each well include 6 μl of 5x Kinase Buffer 1 + 1 μl of 500 μM ATP + 1 μl of PTK Substrate (Poly-Glu,Tyr 4:1) (10 mg/ml) + 17 μl of distilled water. For BRAF assay each well include 6 μl of 5x Kinase Buffer 1 + 1 μl of ATP (500 μM) + 10 μl of 5X Raf substrate + 8 μl of distilled water. 1x Kinase buffer 1 was prepared by mixing 600 μl of 5x Kinase Buffer 1 with 2400 μl water to give 3 mL. Kinases were thawed on ice and were diluted with 1x Kinase Buffer 1.
To start the biochemical reaction, 25 µL of the master mixture was added to each well in 96 well plate. 5 µL of 10% DMSO was added to positive control wells and blank wells. 5 µL of diluted inhibitor was added to each well labelled with the test inhibitor so that the final concentration of DMSO is 1% in all reactions. Then 20 µL of (1 ng / μl) in case of VEGFR-2 and FGFR-1 or (2.5 ng/μl) in case of BRAF in 1x kinase buffer was added to positive control wells and wells labelled with the inhibitor, while 20 µL 1x kinase buffer 1 was added to the […]
The plate was incubated at 30 °C for 45 min. Subsequently, 50 μl of Kinase-Glo Max luminescence reagent was added to each well and the plate was covered with aluminum foil and incubated at room temperature 15 min. Finally, the luminescence was recorded using multimode microplate reader. Kinase activity assays were performed in duplicate at each […]
The luminescence data were analyzed as follows. The difference between luminescence intensities in the absence of kinase (Lut) and in the presence of kinase (Luc) was defined as 100 % activity (Lut – Luc). Using luminescence signal (Lu) in the presence of the compound, % activity was calculated as: % activity = {(Lut - Lu)/(Lut - Luc)}×100%. The […]
concentration of the test compounds required to reduce the kinase activity by 50% was determined from dose-response curves and recorded as their IC50. […]

[1] = system: NCI panel of 60 tumor cell lines; experiment: NCI SRB growth inhibition, whole panel mean (single dose 10 µM / five-dose); assay type: cell-based, human; settings: Homo sapiens
Protocol: (§1) Screening of cytotoxic activity against a panel of sixty human tumor cell lines The selected compounds by NCI were evaluated for their anticancer activity in a two- stage process. […] Then, the output from the single dose screen is reported as a mean graph. […] Assay protocol. […] For a typical screening experiment, cells are inoculated into 96 well microtiter plates in 100 µL at plating densities ranging from 5000 to 40,000 cells/well depending on the doubling time of individual cell lines. […] After 24 h, two plates of each cell line are fixed in situ with TCA, to represent a measurement of the cell population for each cell line at the time of drug addition (Tz). The experimental drugs are solubilized in dimethyl sulfoxide at 400-fold the desired final maximum test concentration and stored frozen prior to use. At the time of drug addition, an aliquot of frozen concentrate is thawed and diluted to twice the desired final maximum test concentration with complete medium containing 50 µg/mL gentamicin. Additional four, 10-fold or ½ log serial dilutions are made to provide a total of five drug concentrations plus control. Aliquots of 100 mL of these different drug dilutions are added to the appropriate microtiter wells already containing […] of medium, resulting in the required final drug concentrations. […] For adherent cells, the assay is terminated by the addition of cold TCA. […] The supernatant is discarded, and the plates are washed five times with tap water and air dried. Sulforhodamine B (SRB) solution ([…]) at 0.4% (w/v) in 1% acetic acid is added to each well, and plates are incubated for 10 min at room temperature. After staining, unbound dye is removed by washing five times with 1% acetic acid and the plates are air dried. […] Using the seven absorbance measurements [time zero, (Tz), control growth, (C), and test growth in the presence of drug at the five concentration levels (Ti)], the percentage growth is calculated at each of the drug concentrations levels. Percentage growth inhibition is calculated as: [(Ti Tz)/(C–Tz)] x 100 for concentrations for which Ti>/=Tz and [(Ti-Tz)/Tz] x 100 for concentrations for which Ti < Tz. Three dose response parameters are calculated for each experimental agent. […] The drug concentration resulting in total growth inhibition (TGI) is calculated from Ti = Tz. […] Values are calculated for each of these three parameters if the level of activity is reached; however, if the effect is not reached or is exceeded, the value for that parameter is expressed as greater or less than the maximum or minimum concentration tested.

786–0 = experiment: NCI SRB growth inhibition (single dose 10 µM / five-dose); assay type: cell-based, human; settings: Homo sapiens; for inhibition at 10 µM: 786–0 (Renal cancer), read-out: GI%
Protocol: as §1

HL-60(TB) = experiment: as above; assay type: cell-based, human; settings: Homo sapiens; for inhibition at 10 µM: HL-60(TB) (Leukemia), read-out: GI%
Protocol: as §1

HOP-92 = experiment: as above; assay type: cell-based, human; settings: Homo sapiens; for inhibition at 10 µM: HOP-92 (Non-small cell lung cancer), read-out: GI%
Protocol: as §1

LOX IMVI = experiment: as above; assay type: cell-based, human; settings: Homo sapiens; for inhibition at 10 µM: LOX IMVI (Melanoma), read-out: GI%
Protocol: as §1

NCI-H23 = experiment: as above; assay type: cell-based, human; settings: Homo sapiens; for inhibition at 10 µM: NCI-H23 (Non-small cell lung cancer), read-out: GI%
Protocol: as §1

NCI-H322M = experiment: as above; assay type: cell-based, human; settings: Homo sapiens; for inhibition at 10 µM: NCI-H322M (Non-small cell lung cancer), read-out: GI%
Protocol: as §1

NCI/ADR-RES = experiment: as above; assay type: cell-based, human; settings: Homo sapiens; for inhibition at 10 µM: NCI/ADR-RES (Ovarian cancer), read-out: GI%
Protocol: as §1

SF-539 = experiment: as above; assay type: cell-based, human; settings: Homo sapiens; for inhibition at 10 µM: SF-539 (CNS cancer), read-out: GI%
Protocol: as §1

UACC-257 = experiment: as above; assay type: cell-based, human; settings: Homo sapiens; for inhibition at 10 µM: UACC-257 (Melanoma), read-out: GI%
Protocol: as §1

UACC-62 = experiment: as above; assay type: cell-based, human; settings: Homo sapiens; for inhibition at 10 µM: UACC-62 (Melanoma), read-out: GI%
Protocol: as §1

[2] = mean over NCI 60 cell lines, > 100% = lethal effect, read-out: mean growth inhibition % (GI%)
[3] = mean over NCI panel of 60 tumor cell lines, read-out: Mean growth inhibition %

T1 sequence (P35968 20-1356): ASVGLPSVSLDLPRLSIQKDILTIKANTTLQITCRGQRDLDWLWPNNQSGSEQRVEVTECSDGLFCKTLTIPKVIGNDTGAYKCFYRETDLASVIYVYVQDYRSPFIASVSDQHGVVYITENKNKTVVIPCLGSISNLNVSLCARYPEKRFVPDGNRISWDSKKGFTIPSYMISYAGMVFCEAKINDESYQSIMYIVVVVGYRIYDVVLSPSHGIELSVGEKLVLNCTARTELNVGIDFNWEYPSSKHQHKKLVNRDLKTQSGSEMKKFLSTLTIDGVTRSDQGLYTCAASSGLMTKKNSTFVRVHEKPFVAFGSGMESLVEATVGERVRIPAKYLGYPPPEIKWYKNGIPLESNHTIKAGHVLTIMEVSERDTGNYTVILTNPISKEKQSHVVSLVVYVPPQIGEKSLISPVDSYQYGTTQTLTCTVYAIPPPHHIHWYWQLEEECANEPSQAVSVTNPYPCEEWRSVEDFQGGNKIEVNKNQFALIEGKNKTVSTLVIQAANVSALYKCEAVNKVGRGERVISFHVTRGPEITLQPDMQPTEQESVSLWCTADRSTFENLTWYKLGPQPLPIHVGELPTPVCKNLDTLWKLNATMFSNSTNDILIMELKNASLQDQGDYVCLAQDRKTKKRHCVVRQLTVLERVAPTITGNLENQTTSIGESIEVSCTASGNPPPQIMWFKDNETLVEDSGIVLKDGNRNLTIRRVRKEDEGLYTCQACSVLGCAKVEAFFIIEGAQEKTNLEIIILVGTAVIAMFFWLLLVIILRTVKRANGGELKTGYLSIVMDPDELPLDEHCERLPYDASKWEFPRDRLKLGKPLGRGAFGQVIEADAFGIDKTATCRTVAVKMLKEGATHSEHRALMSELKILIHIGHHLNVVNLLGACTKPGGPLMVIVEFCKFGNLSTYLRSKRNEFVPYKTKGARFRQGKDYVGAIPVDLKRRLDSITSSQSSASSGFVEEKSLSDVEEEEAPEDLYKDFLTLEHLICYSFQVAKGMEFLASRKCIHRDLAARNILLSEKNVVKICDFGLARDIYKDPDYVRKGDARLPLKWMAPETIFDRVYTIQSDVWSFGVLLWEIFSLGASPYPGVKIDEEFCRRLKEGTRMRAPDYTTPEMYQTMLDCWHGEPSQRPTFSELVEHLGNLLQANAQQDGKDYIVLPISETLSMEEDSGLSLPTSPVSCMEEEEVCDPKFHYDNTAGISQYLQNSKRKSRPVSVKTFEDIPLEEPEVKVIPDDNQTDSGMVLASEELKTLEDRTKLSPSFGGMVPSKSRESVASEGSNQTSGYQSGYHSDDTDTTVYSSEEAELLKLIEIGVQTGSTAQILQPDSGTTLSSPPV

| SMILES | inhibition at 10 µM (VEGFR-2) [%] | inhibition at 10 µM [1, 2] [%] | inhibition at 10 µM [1, 3] [%] | inhibition at 10 µM (786–0) [%] | inhibition at 10 µM (HL-60(TB)) [%] | inhibition at 10 µM (HOP-92) [%] | inhibition at 10 µM (LOX IMVI) [%] | inhibition at 10 µM (NCI-H23) [%] | inhibition at 10 µM (NCI-H322M) [%] | inhibition at 10 µM (NCI/ADR-RES) [%] | inhibition at 10 µM (SF-539) [%] | inhibition at 10 µM (UACC-257) [%] | inhibition at 10 µM (UACC-62) [%] | other results |
| --- | --- | --- | --- | --- | --- | --- | --- | --- | --- | --- | --- | --- | --- | --- |
| O=C(NN=Cc1cccc(O)c1)c1ccc2[nH]c(-c3ccccc3)nc2c1 [8b, N'-(3-Hydroxybenzylidene)-2-phenyl-1H-benzo[d]imidazole-5-carbohydrazide] | 23.8 ± 1.47 | 8.49 | 8.49 | 5.43 | 14.4 | < 5 | 7.43 | < 5 | < 5 | < 5 | 13.7 | < 5 | < 5 |  |
| COc1cccc(C=NNC(=O)c2ccc3[nH]c(-c4ccccc4)nc3c2)c1 [8c, N'-(3-Methoxybenzylidene)-2-phenyl-1H-benzo[d]imidazole-5-carbohydrazide] | 18.5 ± 0.95 | 20.7 | 20.7 | 21.3 | 38.1 | < 5 | < 5 | 9.68 | 6.09 | 6.59 | 28.6 | 14.6 | 14.7 |  |
| COc1cccc(C=NNC(=O)c2ccc3[nH]c(-c4ccccc4)nc3c2)c1O [8d, N'-(2-hydroxy-3-methoxybenzylidene)-2-phenyl-1H-benzo[d]imidazole-5-carbohydrazide] | 53.8 ± 2.62 | 92.5 | 92.5 | 86 | 90 | 68.4 | 92.9 | > 100 | 88 | 48 | > 100 | > 100 | 99.5 | GI50 ([1]; mean over NCI cancer cell lines, five-dose): 2620 nM; GI50 (786–0; 786–0, Renal cancer, five-dose): 2470 nM; GI50 (HL-60(TB); HL-60(TB), Leukemia, five-dose): 2420 nM; GI50 (HOP-92; HOP-92, Non-small cell lung cancer, five-dose): 1580 nM; GI50 (LOX IMVI; LOX IMVI, Melanoma, five-dose): 1340 nM; GI50 (NCI-H23; NCI-H23, Non-small cell lung cancer, five-dose): 1870 nM; GI50 (NCI-H322M; NCI-H322M, Non-small cell lung cancer, five-dose): 1410 nM; GI50 (NCI/ADR-RES; NCI/ADR-RES, Ovarian cancer, five-dose): 4650 nM; GI50 (SF-539; SF-539, CNS cancer, five-dose): 1310 nM; GI50 (UACC-257; UACC-257, Melanoma, five-dose): 2340 nM; GI50 (UACC-62; UACC-62, Melanoma, five-dose): 1220 nM |
